In test [1] the test system is ADC-172 in DH10B Escherichia coli. In words: MIC by broth microdilution, ADC-172 in DH10B E. coli. Format: cell-based. Particulars: DH10B E. coli expressing ADC-172 (Adup) from pBCSK−, FDC in iron-depleted cation-adjusted MH broth, mode of triplicate. As to the method: (§1) Susceptibility testing to standard antibiotics was performed by broth microdilution according to 2024 Clinical and Laboratory Standards Institute (CLSI) guidelines ([38]). MICs for FDC were done in iron-depleted cation-adjusted Mueller-Hinton (MH) broth according to CLSI methods. All MICs were interpreted according to the 2024 CLSI guidelines ([38]). MICs are done in triplicate, and the mode MIC value is reported.
(§2) blaADC-7 pBCSK− was cloned and expressed in E. coli DH10B cells as previously described for MIC determinations ([3]). The pBCSK-non-inducible phagemid vector has a chloramphenicol resistance gene used to aid selection. All other blaADC variants were synthesized by GenScript according to the blaADC-7 pBCSK− strategy, cloning into the XbaI/BamHI sites of the pBCSK− vector ([5]).
On the technique in general: Broth dilution looks for growth in wells or tubes with falling amounts of substance.

Test [2] has as its target T1, ADC-33 (Acinetobacter baumannii, UniProt A7Y407). Kind of test: Thermal denaturation by circular dichroism, ADC-33. The note with it: ADC-33 12 µM, 1 mM antibiotic, PBS pH 7.4. Format: binding. The method, then: (§3) For thermal denaturation, protein samples were monitored for helical content by circular dichroism in the far-UV region at 210 and 220 nm using a Jasco J-815 spectrometer (Easton, MD) with a Peltier-effect temperature controller, as previously described ([41]). Enzyme concentrations were 12 µM in phosphate-buffered saline (PBS) pH 7.4. The thermodynamic stability of apoADC-30 and ADC-33, and with 1 mM FDC and CAZ, was determined from equilibrium unfolding curves. With the assumption of a reversible two-state transition, we determined the Tm at the midpoint of equilibrium folding. Thermal denaturation experiments were done in duplicate under the same conditions, with each data point representing the average of three successive scans, and the Tm values are consistent with ±1°C variation.
In general terms: Circular dichroism is the unequal absorption of left and right circularly polarised light.

Another test deals with ADC-172 (Acinetobacter baumannii, UniProt A7Y407, N321K). Kind of test: Competition kinetics with nitrocefin (Ki), ADC-172. Format: biochemical. Particulars: 3 min pre-incubation, Cheng-Prusoff corrected. As to the method:
(§4) For inhibition kinetics, utilizing NCF as a colorimetric substrate of ADCs, the inhibition constant (Ki) of CAZ and FDC with ADCs was determined using competition kinetics as previously described ([5]). After a 3 min pre-incubation of the enzyme (2 nM) with increasing concentration of the inhibitor, measurements of the initial velocities were performed with the addition of 100–200 µM NCF (twofold of the experimentally determined KM value). To determine the average velocities (v0), data from three experiments were fit to the followingequation: […]
(§5) where vu represents the NCF uninhibited velocity and IC50 represents the inhibitor concentration that results in a 50% reduction of vu. The Ki value was corrected for the NCF affinity (KM values for each ADC) with the Cheng-Prusoff ([5]) equation: […]
(§6) The standard error for Ki values was generated by factoring in the larger of the proportional standard errors for the individual IC50 value and the KM -NCF value.

Test [3] deals with T2, ADC-30 (Acinetobacter baumannii, UniProt A7XM81). Kind of test: Timed electrospray ionization mass spectrometry of acylated adducts, ADC-30. The format is binding. Particulars: ADC-30, +468 Da adduct, at 1 h; enzyme:substrate 1:25. As to the method: (§7) β-Lactamase (5 µg) was incubated with substrate at a molar ratio of 1:25 (FDC, CAZ, meropenem [MEM]) in sterile 10 mM PBS, pH 7.4, for a total reaction volume of 20 µL (t = 30 s, 1 min, 15 min, 30 min, 1 h, 2 h, and 24 h). Reactions were quenched with 1% acetonitrile and 0.1% formic acid. Samples were analyzed using Q-TOF Waters Synapt-G2-Si and a Waters Acquity ultrapressure liquid chromatography BEH C18 column (1.7 µm […]; 2.1 × 50 mm). MassLynx v.4.1 was used to deconvolute protein peaks. The tune settings for each data run were as follows: capillary voltage at 3.5 kV, sampling cone at 35, source offset at 35, source temperature 100°C, desolvation temperature 500°C, cone gas at 100 L/h, desolvation gas at 800 L/h, and nebulizer bar at 6.0. Mobile phase A was 0.1% formic acid-water. Mobile phase B was 0.1% formic acid-acetonitrile. The mass accuracy for this system is ±5 Da. Mass spectrometry experiments were performed once over a range of time points.

Test [4] has as its target T1, ADC-33. Kind of test: Competition kinetics with nitrocefin (Ki), ADC-33. The format is biochemical. Particulars: 3 min pre-incubation, Cheng-Prusoff corrected. The method, then: as §4, §5, §6
A further test concerns the target ADC-143 (Acinetobacter baumannii, UniProt Q6DRA1, Q144K, form not given). In words: Competition kinetics with nitrocefin (Ki), ADC-143. The note with it: 3 min pre-incubation, Cheng-Prusoff corrected. The format is biochemical. As to the method: as §4, §5, §6
For a further test, the target named is ADC-217 (Acinetobacter baumannii, UniProt Q6DRA1, V286E, form not given). Kind of test: Competition kinetics with nitrocefin (Ki), ADC-217. The format is biochemical. The note with it: 3 min pre-incubation, Cheng-Prusoff corrected. The method, then: as §4, §5, §6
For the next test, the system named is DH10B alone. Kind of test: MIC by broth microdilution, DH10B alone. Format: cell-based. The note with it: Escherichia coli; DH10B alone (control strain); FDC in iron-depleted cation-adjusted MH broth. The method, then:
as §1, §2

Another test addresses ADC-73 (Acinetobacter baumannii, UniProt A0A059ZDI2). Kind of test: Competition kinetics with nitrocefin (Ki), ADC-73. Format: biochemical. The note with it: 3 min pre-incubation, Cheng-Prusoff corrected. As to the method: as §4, §5, §6
For test [5], the target named is T2, ADC-30. Kind of test: Competition kinetics with nitrocefin (Ki), ADC-30. Format: biochemical. Particulars: 3 min pre-incubation, Cheng-Prusoff corrected. As to the method: as §4, §5, §6
For test [6], the system named is ADC-217 in DH10B Escherichia coli. In words: MIC by broth microdilution, ADC-217 in DH10B E. coli. The format is cell-based. The note with it: DH10B E. coli expressing ADC-217 (non-Adup) from pBCSK−, FDC in iron-depleted cation-adjusted MH broth, mode of triplicate. The method, then: as §1, §2
Another test concerns the target ADC-7 (Acinetobacter baumannii, UniProt Q6DRA1). In words: Competition kinetics with nitrocefin (Ki), ADC-7. The format is biochemical. The note with it: 3 min pre-incubation, Cheng-Prusoff corrected. The method, then:
as §4, §5, §6

For test [7], the target named is T1, ADC-33. Kind of test: Timed electrospray ionization mass spectrometry of acylated adducts, ADC-33. Format: binding. Particulars: ADC-33, incubation 30 s–1 h; enzyme:substrate 1:25. As to the method:
as §7

For test [8], the system named is ADC-33 in DH10B Escherichia coli. Kind of test: MIC by broth microdilution, ADC-33 in DH10B E. coli. The format is cell-based. Particulars: DH10B E. coli expressing ADC-33 (Adup) from pBCSK−, FDC in iron-depleted cation-adjusted MH broth, mode of triplicate. The method, then: as §1, §2
The subject of test [9] is DH10B Escherichia coli pBCSK− no insert. In words: MIC by broth microdilution, DH10B E. coli with pBCSK− no insert. Format: cell-based. The note with it: DH10B E. coli with pBCSK− no insert (control strain), FDC in iron-depleted cation-adjusted MH broth. The method, then: as §1, §2
Test [10] relates to ADC-218 in DH10B Escherichia coli. In words: MIC by broth microdilution, ADC-218 in DH10B E. coli. Format: cell-based. Particulars: DH10B E. coli expressing ADC-218 (Adup) from pBCSK−, FDC in iron-depleted cation-adjusted MH broth, mode of triplicate. As to the method: as §1, §2
The next test has as its system CRAb isolates. Particulars: certain CRAb isolates with elevated MICs; cited from earlier work.
The target in test [11] is T2, ADC-30. Kind of test: Thermal denaturation by circular dichroism, ADC-30. Format: binding. Particulars: ADC-30 12 µM, 1 mM antibiotic, PBS pH 7.4; read-out: change of Tm of the β-lactamase on addition of antibiotic. As to the method:
as §3

Test [12] has as its target T1, ADC-33. The note with it: hydrolysis by ADC-33; previously determined; cited from earlier work.

The structures appear in SMILES notation. In brackets after ≈: the same amount, converted by molar mass. Read-outs that look alike come from different tables or passages of the source. Where only a bound is given, the exact number is not on record here.

For `CC(C)(O/N=C(\C(=O)N[C@@H]1C(=O)N2C(C(=O)[O-])=C(C[N+]3(CCNC(=O)c4ccc(O)c(O)c4Cl)CCCC3)CS[C@H]12)c1csc(N)n1)C(=O)O` [FDC, cefiderocol], the MIC is 1.0 µg/mL (≈ 1.33 µM) in test [1]; 1 µg/mL (≈ 1.33 µM) in test [1] (Escherichia coli, read-out: MIC); 0.06 µg/mL (≈ 0.0798 µM) in the test with DH10B alone; 0.25 µg/mL (≈ 0.332 µM) in [6]; 0.5 µg/mL (≈ 0.665 µM) in [8]; 0.125 µg/mL (≈ 0.166 µM) in test [9]. In addition, the MIC in [10] is 0.5 µg/mL (≈ 0.665 µM); in the test on CRAb isolates, no less than 64 µg/mL. In addition, the “change of Tm of the β-lactamase on addition of antibiotic” value on ADC-33 [2] is on record as “not observed”. For the same compound, the Ki was determined as 3.26 ± 0.31 µM on ADC-172; 19.3 ± 1.46 µM at ADC-33 [4]; 171 ± 27.7 µM on ADC-143; 0.21 ± 0.025 µM at ADC-217; 111 ± 9.7 µM on ADC-73; 62.7 ± 3.95 µM at ADC-30 [5]. The same compound had a Ki on ADC-7 of 75 ± 5.32 µM. Moreover, the “percentage of acylated adduct” value on ADC-30 [3] was determined as 70%. For the same compound, the “formation of stable acyl-enzyme adduct” value at ADC-33 [7] was “did not form a stable acyl-enzyme adduct”. In addition, the ΔTm at 1000 µM on ADC-30 [11] was 2 °C. Also, the kcat on ADC-33 [12] is 0.60 s⁻¹.

In general, MIC refers to the least concentration at which growth counts as inhibited. A word on the Ki: it is a measure of affinity in units of concentration, obtained from inhibition or displacement. A low value points to a stronger hold on the target. What is called kcat is the number of substrate molecules converted per active site and unit of time at saturation.

The values above are taken from publication PMC12153338, “Resistance to oxyimino-cephalosporins conferred by an alternative mechanism of hydrolysis by the Acinetobacter-derived cephalosporinase-33 (ADC-33), a class C β-lactamase present in carbapenem-resistant Acinetobacter baumannii (CRAb)” (mBio, 2025).
